Legend:
Format in all cases: binding
[1] = tested on: antibodies in sera from TB patients and PPD+/PPD- healthy subjects; experiment: ELISA of PE-PGRS51 overlapping peptides with human sera; settings: for non-specific reactivity with sera from HIV+TB- subjects: 20 HIV+TB- subjects, positive/tested; for final sensitivity: percent of patients whose sera recognize the peptide: 90 sputum smear positive TB patients, positive 2/3 or 3/3 times, cut-off mean plus 4 SD; for Immunoreactive: PE-PGRS51 peptides, biotinylated, streptavidin plates, TB patient sera
[2] = tested on: antibodies in sera from HIV-TB+ patients and PPD+/PPD- healthy controls; experiment: ELISA of LipC overlapping peptides with human sera; settings: biotinylated, streptavidin plates, patient sera
[3] = tested on: antibodies in sera from HIV-TB+ patients and PPD+/PPD- healthy controls; experiment: ELISA of PTRP overlapping peptides with human sera; settings: for Immunoreactive: PTRP peptides, biotinylated, streptavidin plates, TB patient sera; for percent of HIV-TB+ patient sera positive with the peptide in 2/3 or 3/3 tests: 60 HIV-TB+ patients, cut-off mean OD of PPD+/PPD- plus 3 SD, retested twice
[4] = tested on: anti-LipC antibodies in sera from TB patients; experiment: Western blot of His-tagged LipC probed with human sera; settings: for sera showing anti-LipC antibodies: positive/tested

In the case of AGAGGNGAAGGDGGANGGAG [PG-31], the “non-specific reactivity with sera from HIV+TB- subjects” value (shortened to “non-specific reactivity with sera”) [1] is reported as “no cross-reactivity”, the “percent of HIV+TB+ patient sera recognizing the peptide (sensitivity)” value ([1]; 30 smear positive HIV+TB+ patients) is reported as 57% and the “final sensitivity: percent of patients whose sera recognize the peptide” value (shortened to “final sensitivity: percent”) [1] is reported as 52%. For the same molecule, the Immunoreactive [1] was “++ (++ indicates that the peptides were recognized by 40% or more TB patient sera)”.

AHAIALFLNQVHRSRAQFAK [Lp-39] was tested, and the Immunoreactive [2] was “++ (++ immunodominant based on being recognized by 45% or more patient sera)”.

With ARPADYMLALSVAGGSLPVV [Lp-3] the Immunoreactive [2] was “++ (++ immunodominant based on being recognized by 45% or more patient sera)”.

In the case of DATTSLPRAEAGQSGSEGEQ [PT-23], the Immunoreactive [3] is reported as “++ (++ indicates that the peptides were recognized by 40% or more TB patient sera)”.

In the case of DGGLLFGNGGAGYNSAATPG [PG-14], the Immunoreactive [1] is reported as “++ (++ indicates that the peptides were recognized by 40% or more TB patient sera)”.

For DRSLAGENHRLVATRLCWPD [PT-6], the Immunoreactive [3] was “++ (++ indicates that the peptides were recognized by 40% or more TB patient sera)”.

For FPGWQPGMPTIPTAPPTTPV [PT-41], the “percent of HIV-TB+ patient sera positive with the peptide in 2/3 or 3/3 tests” value (“percent of HIV-TB+ patient sera positive” below) [3] was 55% and the Immunoreactive [3] was “++ (++ indicates that the peptides were recognized by 40% or more TB patient sera)”.

With GGTGGDGGDGGHAGTGGRGG [PG-51] the Immunoreactive [1] was “++ (++ indicates that the peptides were recognized by 40% or more TB patient sera)”.

GGTHGTPGSGNAGGTGTGNA [PG-55] was tested, and the “final sensitivity: percent” value [1] was 49% and the Immunoreactive [1] was “++ (++ indicates that the peptides were recognized by 40% or more TB patient sera)”.

For GHAGTGGRGGLLAGQHANSG [PG-52], the Immunoreactive [1] was “++ (++ indicates that the peptides were recognized by 40% or more TB patient sera)”.

With GNGGAGGDANGNPANTSIAN [PG-29] the Immunoreactive [1] was “++ (++ indicates that the peptides were recognized by 40% or more TB patient sera)”.

In the case of GSRDCVIPVEQARSFVERLR [Lp-34], the Immunoreactive [2] is reported as “++ (++ immunodominant based on being recognized by 45% or more patient sera)”.

In the case of GTPGGAGVNGGNGGAGGDAN [PG-28], the Immunoreactive [1] is reported as “++ (++ indicates that the peptides were recognized by 40% or more TB patient sera)”.

In the case of IAVAGCSAGGHLSALAGLTA [Lp-24], the Immunoreactive [2] is reported as “++ (++ immunodominant based on being recognized by 45% or more patient sera)”.

For LAAAASDVANIGSALSAANA [PG-2], the “non-specific reactivity with sera” value [1] was 2/20, the “final sensitivity: percent” value [1] was 48% and the Immunoreactive [1] was “++ (++ indicates that the peptides were recognized by 40% or more TB patient sera)”.

LLAGQHANSGNGGGGGTGGA [PG-53] was tested, and the Immunoreactive [1] was “++ (++ indicates that the peptides were recognized by 40% or more TB patient sera)”.

LQDSGVHDVAVISEAQAATA [PT-9] was tested, and the “percent of HIV-TB+ patient sera positive” value [3] was 58% and the Immunoreactive [3] was “++ (++ indicates that the peptides were recognized by 40% or more TB patient sera)”.

With LSVVGDPDAPPTMVAVAPVA [PT-13] the “percent of HIV-TB+ patient sera positive” value [3] was 53% and the Immunoreactive [3] was “++ (++ indicates that the peptides were recognized by 40% or more TB patient sera)”.

LTGNDGVNPAPVTNPALNGA [PG-24] was tested, and the Immunoreactive [1] was “++ (++ indicates that the peptides were recognized by 40% or more TB patient sera)”.

With MAGGNGGNAGLIGNGGTGGS [PG-16] the Immunoreactive [1] was “++ (++ indicates that the peptides were recognized by 40% or more TB patient sera)”.

With MDVALGVAVTDRVARLALVD [PT-1] the Immunoreactive [3] was “++ (++ indicates that the peptides were recognized by 40% or more TB patient sera)”.

In the case of NDPQYQAELPEGSDTSVDAV [Lp-26], the Immunoreactive [2] is reported as “++ (++ immunodominant based on being recognized by 45% or more patient sera)”.

For NGGAGGDAGHGGTGGDGGDG [PG-50], the “non-specific reactivity with sera” value [1] was 1/20, the “final sensitivity: percent” value [1] was 50% and the Immunoreactive [1] was “++ (++ indicates that the peptides were recognized by 40% or more TB patient sera)”.

With PIPVPIIIPPFPGWQPGMPT [PT-40] the “percent of HIV-TB+ patient sera positive” value [3] was 52% and the Immunoreactive [3] was “++ (++ indicates that the peptides were recognized by 40% or more TB patient sera)”.

With PTMVAVAPVAGADATSTVDT [PT-14] the Immunoreactive [3] was “++ (++ indicates that the peptides were recognized by 40% or more TB patient sera)”.

For QQAPVPPPPPDDPTAGFQGG [PT-34], the Immunoreactive [3] was “++ (++ indicates that the peptides were recognized by 40% or more TB patient sera)”.

With QTPDDPTFALARGAAMAAGA [PT-20] the Immunoreactive [3] was “++ (++ indicates that the peptides were recognized by 40% or more TB patient sera)”.

With SAAPGTVIDQFVLDVAEHPV [PT-3] the Immunoreactive [3] was “++ (++ indicates that the peptides were recognized by 40% or more TB patient sera)”.

With SVAGGSLPVVGKHLKPLGGV [Lp-4] the Immunoreactive [2] was “++ (++ immunodominant based on being recognized by 45% or more patient sera)”.

With TAIGVWGARHASDFLSATAK [Lp-6] the Immunoreactive [2] was “++ (++ immunodominant based on being recognized by 45% or more patient sera)”.

In the case of TGAGGSYALTEAANVQQNLL [PG-9], the Immunoreactive [1] is reported as “++ (++ indicates that the peptides were recognized by 40% or more TB patient sera)”.

For TTPPTTPVTTPPTTPPTTPV [PT-45], the Immunoreactive [3] was “++ (++ indicates that the peptides were recognized by 40% or more TB patient sera)”.

B1: LipC: purified His-tagged recombinant Mtb LipC protein (SEQ ID NO:6), probable esterase (protein)
chain: MNQRRAAGSTGVAYIRWLLRARPADYMLALSVAGGSLPVVGKHLKPLGGVTAIGVWGARHASDFLSATAKDLLTPGINEVRRRDRASTQEVSVAALRGIVSPDDLAVEWPAPERTPPVCGALRHRRYVHRRRVLYGDDPAQLLDVWRRKDMPTKPAPVLIFVPGGAWVHGSRAIQGYAVLSRLAAQGWVCLSIDYRVAPHHRWPRHILDVKTAIAWARANVDKFGGDRNFIAVAGCSAGGHLSALAGLTANDPQYQAELPEGSDTSVDAVVGIYGRYDWEDRSTPERARFVDFLERVVVQRTIDRHPEVFRDASPIQRVTRNAPPFLVIHGSRDCVIPVEQARSFVERLRAVSRSQVGYLELPGAGHGFDLLDGARTGPTAHAIALFLNQVHRSRAQFAKEVI
modifications: His tag; Mycbacterium tuberculosis Strain H37Rv
With B1 the “sera showing anti-LipC antibodies” value ([4]; HIV+TB+ patients) was 6/6, the “reactivity of control sera” value ([4]; HIV+TB-, HIV-PPD+, HIV-PPD- control sera) was “background cross-reactivity” and the “sera showing anti-LipC antibodies” value ([4]; HIV-TB+ patients) was 5/6. The “sera showing anti-LipC antibodies” value ([4]; TB patients (HIV-TB+ and HIV+TB+)) was 11/12.
